These are literature values, as cited in PMC10667676, “Pharmacokinetics and bioequivalence of sunitinib and Sutent® in Chinese healthy subjects: an open-label, randomized, crossover study” (Frontiers in Pharmacology, 2023).

In one series the test system is CYP enzymes. To be noted: ref Zhou and Gallo, 2010; Kassem et al., 2012a.
On the set-up of series [1]: method as in Bello and e t al., 2006. To be noted: healthy subjects, high-fat, high-calorie diet, oral 50 mg; ref Bello and e t al., 2006.

With `CCN(CC)CCNC(=O)c1c(C)[nH]c(/C=C2\C(=O)Nc3ccc(F)cc32)c1C` [Sunitinib], the Elimination half-life (healthy subjects' plasma, no reference given) is 40 to 60 h. Further, the “Elimination through the feces, share of total administered dose” value (primary route of elimination, ref Adams and Leggas, 2007) is reported as 61%. Also, the “Renal excretion, share of total administered dose” value (ref Adams and Leggas, 2007) is reported as 16%. In addition, the “Effect of food consumption on bioavailability” value (ref Bello and e t al., 2006) is on record as “unaltered”. Besides, the “Inhibition or induction of CYP enzymes” value in the series on CYP enzymes was “unlikely to significantly inhibit or induce”. In addition, in series [1], the “AUC0-∞” value was 1489 (1276–1736) ng*h/mL, the “AUC0–t” value is 1476 (1264–1724) ng*h/mL, the Cmax was 25.1 (21.1–29.7) ng/mL and the Tmax is 8.03 h. In series [1], the t1/2 is given as 59.1 h.

A word on the Tmax: it is the time from dosing to the highest level.
